Test results reported in US20060269995A1, “Novel assays utilizing nicotinic acetylcholine receptor subunits” (priority 2005, published 2006).
Like-named read-outs stand apart in the source and are kept apart here.

Tests used:
[1] = test system: Dα6 and C. elegans ric3 expressed in D.Mel-2 cells; assay: [3H]DHSA radioligand displacement binding in D.Mel-2 cells; design: species or system Drosophila melanogaster
Experimental: D.Mel-2 cells were seeded into 75 cm^2 flasks at 1.9×10^7 cells/flask in Drosophila SFM containing antibiotic/antimicotic and incubated overnight at 27° C. The transfection mix was prepared in 12×75 mm polystyrene tubes by mixing 1630 μl sterile water, 40 μg pIB/V5-HisA/ric3, 40 μg pIB/V5-HisA/30D and 250 μl CellFectin. The reagents were mixed gently and incubated at room temp for 15 minutes. While the transfection mix was incubating, the cells were washed with 10 ml fresh Drosophila SFM without antibiotics; this media was then removed from the cells and replaced with 6 ml fresh Drosophila SFM without antibiotics. To the transfection mix was added 4 ml Drosophila SFM without antibiotics and this was then transferred to the flask. The reagents were gently mixed by pipetting up and down and then incubated overnight at 27° C.
D.Mel-2 cells were purchased from Invitrogen (Carlsbad, Calif.) and grown in disposable 125 ml shake flasks using 50 ml volume. Cells were subcultured to 3×10^5 cells/ml twice per week in Drosophila SFM containing 5 ml/L Antibiotic-Antimycotic (100×) (Gibco, Carlsbad, Calif.). D.Mel-2 cells were seeded into a 12-well plate at a cell density of 5×10^5 cells/well and incubated overnight at 27° C. In a 12×75 mm polystyrene tube 6 μg pIB/V5-HisA/ric3, 82 μl sterile H2O and 12 μl CellFectin (Invitrogen, Carlsbad, Calif.) were added. The sample was mixed gently and incubated at room temperature for 15 minutes. While the transfection mix was incubating, media from one well of cells was removed and replaced with 1 ml fresh media without antibiotics. After 15 minutes, the media was removed from cells. To this transfection mix, 0.5 ml media (no antibiotics) was added. This solution was then added to the cells. The mixture was incubated for 48 hrs at 27° C. After 48 hrs, the cells were scraped from the plate using a cell scraper and split into 4 wells of a 6-well plate each containing 2 ml Drosophila SFM with antibiotics. Cells were allowed to attach for 1 hr at 27° C.; the media was removed and replaced with 2 ml fresh media containing 25 μg/ml Blasticidin S (Invitrogen, Carlsbad, Calif.). Cells were incubated at 27° C. for 5 days. After 5 days, the cells were scraped loose from the wells and combined into one tube. Cells were spun down at 600 rpm in a tabletop centrifuge; the media was removed and the cells were resuspended into a 50 ml shake culture in fresh Drosophila SFM containing 25 μg/ml Blasticidin S. The cells were incubated at 27° C./140 rpm. Cells were subcultured twice weekly back to cell density of 3×10^5 cells/ml. After 4 weeks the selection was cut back to 10 μg/ml Blasticidin S. After 3 months of growth under selection, a 12 well plate was seeded at 5×10^5 cells/well and cells were incubated over night at 27° C. The following reagents were added to each of three 12×75 mm polystyrene tubes: 2 μg pMT/V5-HisA/30D, 0.15 μg pCoHygro (Invitrogen, Carlsbad, Calif.) (a […] ratio of expression plasmid:selection plasmid), 89 μl sterile H2O and 12 μl CellFectin. The samples were mixed gently and incubated at room temp for 15 minutes and then transfected as described above. After 24 hrs, the media containing transfection mix was removed and replaced with 1 ml fresh media containing antibiotics. The incubation was continued at 27° C. for another 24 hrs. Cells were scraped loose from the 12-well plate (3 wells) and split into 2, 6-well plates. Cells were allowed to attach for 6 hours at which point, the media was replaced with 2 ml/well fresh media containing 200, 150, 100 or 50 μg/ml hygromycin B. The incubation was continued at 27° C.; every 4-5 days, the media was replaced with media containing hygromycin every 4-5 days. After 2 weeks of selection in the plates, the cells from the 200 μg/ml selection, were scraped loose and then gently pelleted and resuspended in 25 ml fresh media containing 200 μg/ml hygromycin B and then placed into a 125 ml shake flask.

[2] = test system: Drosophila melanogaster flies of the Oregon wild-type strain; assay: Adult fly mortality screen, wild-type flies; type: in vivo; conditions: 100 ppm in 10% sucrose via cotton wick, 72 hours post-treatment
Experimental: (§1) Ten adult Drosophila melanogaster flies (5 males and 5 females) of the Oregon wild-type strain and ten adult flies of a spinosyn-resistant strain were used per treatment. Two sets (of 10 flies) were set-up per treatment. Stocks of spinosyn A and a 21-butenyl-spinosyn analog were formulated at 1000 ppm in 2:1 acetone:water and then diluted to the required concentration in 10% sucrose. Vials received 500 ul of treatment (or solvent for controls) via cotton wicks (approximately ¼ inch) and flies were added to each vial and capped with a cotton plug. Flies were monitored over 72 hours post-treatment while being maintained at room-temperature with a 12:12 light:dark cycle.
(§2) In addition, the spinosyn A resistant flies were >100-fold resistant (based on LD50) to the new class of spinosyns, represented by the 21-butenyl spinosyns.

[3] = test system: Drosophila melanogaster flies of a spinosyn-resistant strain; assay: Adult fly mortality screen, spinosyn-resistant flies; type: in vivo; conditions: for mortality: 100 ppm in 10% sucrose via cotton wick, 72 hours post-treatment, spinosyn-resistant flies; for resistance of spinosyn A resistant flies compared to wild-type flies (based on LD50): dose-response data, resistant vs wild-type flies
Experimental: as §1, §2

[4] = test system: 30D (nicotinic acetylcholine receptor alpha-6 subunit); type: cell-based, Drosophila melanogaster; note: key: '−' indicates a negligible current was induced; '+' indicates a small amplitude current; '++' indicates a moderate amplitude current; '++++' indicates a large amplitude current
Experimental: (§3) Xenopus laevis (Xenopus 1, Ann Arbor, Mich.; Nasco, Fort Atkinson, Wis.) were anesthetized by bathing in a solution of 2 g/l tricaine methane sulfonate, and oocytes were surgically removed from the frog and placed in a culture solution that consisted of 96 mM NaCl, 2 mM KCl, 1.8 mM CaCl2, 1 mM MgCl2, 5 mM HEPES, 2.5 mM Na-pyruvate, 100 units/ml penicillin, and 0.1 mg/ml streptomycin, pH 7.6. Oocytes were dispersed in a nominally zero Ca^2+ protease treatment solution to defolliculate the oocytes. The protease treatment solution consisted of either 88 mM NaCl, 2.5 mM KCl, 1 mM MgCl2, 5 mM HEPES, 2.5 mM Na-pyruvate, 100 units/ml penicillin, and 0.1 mg/ml streptomycin, pH 7.6 plus 1.5 mg/ml collagenase IA (Sigma Chemical Co., St. Louis, Mo.). After isolation, the oocytes were thoroughly rinsed and returned to the above Ca^2+ containing culture solution and stored at 18° C.
(§4) Synthesis of cRNA was performed as follows: Plasmid DNA was linearized with one of the following restriction enzymes; Not I, Xho I or Nhe I. The linearized DNA was subsequently used as template for cRNA synthesis using T7 mMessage mMachine kit (Ambion, Austin, Tex.) following the manufacturer's instructions.
(§5) Micropipettes for injection of cRNA into Xenopus oocytes were pulled on a DMZ-Universal Puller (Zeitz-Instruments, München, Germany). The cRNA to be injected was drawn up into the micropipette with negative pressure. Approximately 10-50 ng of cRNA was injected into the oocytes by applying positive pressure using a Nanoject II oocyte injector (Drummond Scientific Co., Broomall, Pa.). Nucleic acid was introduced into the oocytes as follows: (1) nicotinic acetylcholine receptor alpha-6 subunit subunit (30D) (2) nicotinic alpha-7 receptor subunit (34E); (3) nicotinic acetylcholine receptor alpha-6 subunit and C. elegans ric-3 (30D and ric-3); (4) nicotinic alpha-7 receptor subunit and C. elegans ric-3 (34E and ric-3); (5) nicotinic acetylcholine receptor alpha-6 subunit and nicotinic alpha-7 receptor subunit (30D and 34E); and, (6) nicotinic acetylcholine receptor alpha-6 subunit, nicotinic alpha-7 receptor subunit and C. elegans ric-3 (30D, 34E and ric-3).
(§6) The control external solution for voltage clamp recordings consisted of 88 mM NaCl, 1 mM KCl, 0.41 mM CaCl2, 2.4 mM NaHCO3, 0.3 mM Ca(NO3)2, 0.82 mM MgSO4·7 H2O, and 15 mM HEPES, pH 7.6. The recording chamber was continuously perfused with a gravity-fed perfusion system. Nicotine (1 mM) was added to the external solution and then added to the perfusate for 30 seconds. Then, nicotine was washed from the external solution a minimum of 10 minutes. Thereafter, spinosyn A was dissolved in dimethylsulfoxide (DMSO) and then dissolved in the external solution at a final concentration of 10 μM and then added to the perfusate for 60 seconds. Then, the spinosyn A was washed from the external solution. The final concentration of DMSO never exceeded 0.1% (v/v).

[5] = test system: 34E (nicotinic acetylcholine receptor alpha-5 subunit); type: cell-based, Drosophila melanogaster; note: key: '−' indicates a negligible current was induced; '+' indicates a small amplitude current; '++' indicates a moderate amplitude current; '++++' indicates a large amplitude current
Experimental: as §3, §4, §5, §6

30D/ric-3 = type: cell-based, Drosophila melanogaster; conditions: −60 mV, peak current
Experimental: as §3, §4, §5, §6

34E/ric-3 = type: cell-based, Drosophila melanogaster; note: key: '−' indicates a negligible current was induced; '+' indicates a small amplitude current; '++' indicates a moderate amplitude current; '++++' indicates a large amplitude current
Experimental: as §3, §4, §5, §6

34E/30D = type: cell-based, Drosophila melanogaster; design: key to the marks not given beside the values; conditions: −60 mV, peak current
Experimental: as §3, §4, §5
as §6, with “Then, the spinosyn A was washed from the external solution. The final concentration of DMSO never exceeded 0.1% (v/v).” left out

34E/30D/ric-3 = type: cell-based, Drosophila melanogaster; design: key to the marks not given beside the values; conditions: −60 mV, peak current; for Spinosyn A Response: key: '−' indicates a negligible current was induced; '+' indicates a small amplitude current; '++' indicates a moderate amplitude current; '++++' indicates a large amplitude current
Experimental: as §3, §4, §5
as §6, with “Then, the spinosyn A was washed from the external solution. The final concentration of DMSO never exceeded 0.1% (v/v).” left out

Dα6-nicotinic receptor = type: binding, Drosophila melanogaster
Experimental: Xenopus oocytes were injected as previously described for the electrophysiological assay and were used intact for binding assays.
Two main radioligands were used in binding assays: the conventional α7 radioligand, [^3H]methyllycaconitine (MLA) and [^3H]dihydrospinosyn A (DHSA). For both radioligands, the Binding Buffer used consisted of 10 mM sodium phosphate (7.2-7.4). […] For Xenopus oocyte binding assays, oocytes were pooled (2-5 oocytes) and transferred to 1 ml Binding Buffer. This was followed by gently aspirating the Binding Buffer and replacing with fresh Binding Buffer twice, to wash out any residual oocyte bathing media. The final volume of buffer added to each pool of oocytes was 50-100 μl. […] Subsequent dilutions were made in Binding Buffer. The final concentration of solvent was maintained at less than 0.1% in each well. 25 μl of unlabeled competing compounds were added to the cell suspensions or oocytes. Cells or cell extracts were pre-incubated with compounds for 15-30 minutes, at 10° C. (for [^3H]DHSA) and room-temperature for [^3H]MLA. The samples were gently shaken using a plate shaker. […] Filter mats were dried in an oven at 60° C. and the radioactivity from samples was counted for three minutes with a Wallac MicroBeta Counter (Wallac, Conn.) using Meltilex solid-scintillant (PerkinElmer, Finland). […]

[6] = D.Mel-2 cells expressing Dα6 and C. elegans ric3
[7] = spinosyn A 10 μM for 60 seconds

C[N+](C)(C)CCOC(N)=O.[Cl-] [carbamylcholine]
displacement of [3H]DHSA binding [1, 6]: did not significantly displace

21-butenyl spinosyn
mortality [2]: all wild-type flies exhibited mortality | mortality [3]: no significant mortality | resistance of spinosyn A resistant flies compared to wild-type flies (based on LD50) [3]: > 100 fold

CN1[C@@H]2CC[C@H]1C[C@@H](OC(=O)C(CO)c1ccccc1)C2 (stereo partly shown) [atropine]
displacement of [3H]DHSA binding [1]: not

NS(=O)(=O)c1cc(C(=O)O)c(NCc2ccco2)cc1Cl [furosemide]
displacement of [3H]DHSA binding [1, 6]: No significant displacement

alpha-bungarotoxin
displacement of [3H]DHSA binding [1]: can be demonstrated at higher concentrations | overall affinity for this receptor complex [1]: relatively poor

O=[N+]([O-])NC1=NCCN1Cc1ccc(Cl)nc1 [imidacloprid]
displacement of [3H]DHSA binding [1, 6]: did not significantly displace

CCN1C[C@]2(COC(=O)c3ccccc3N3C(=O)C[C@H](C)C3=O)CC[C@H](OC)[C@@]34[C@@H]5C[C@H]6[C@H](OC)[C@@H]5[C@](O)(C[C@@H]6OC)[C@@](O)([C@@H](OC)[C@H]23)[C@@H]14 [MLA, methyllycaconitine]
displacement of [3H]DHSA binding [1, 6]: can be demonstrated at higher concentrations | overall affinity for this receptor complex ([1]; [3H]DHSA binding assay, D.Mel-2 cells): relatively poor

CC[C@H]1CCC[C@H](O[C@H]2CC[C@H](N(C)C)[C@@H](C)O2)[C@@H](C)C(=O)C2=C[C@H]3[C@@H]4C[C@H](O[C@@H]5O[C@@H](C)[C@H](OC)[C@@H](OC)[C@H]5OC)C[C@H]4CC[C@H]3[C@@H]2CC(=O)O1 [dihydrospinosyn A]
displacement of [3H]DHSA binding [1, 6]: significant displacement

CC[C@H]1CCC[C@H](O)[C@@H](C)C(=O)C2=C[C@@H]3[C@@H](C=C[C@@H]4C[C@@H](O[C@@H]5O[C@@H](C)[C@H](OC)[C@@H](OC)[C@H]5OC)C[C@@H]34)[C@@H]2CC(=O)O1 [pseudoagylcone of spinosyn A]
displacement of [3H]DHSA binding [1, 6]: Nor was there significant displacement

C[C@H](O)[C@H](O)[C@@H](O)[C@@H](O)C=O [rhamnose]
displacement of [3H]DHSA binding [1, 6]: No significant displacement

CN1COCN(Cc2cnc(Cl)s2)/C1=N\[N+](=O)[O-] [thiamethoxam]
displacement of [3H]DHSA binding [1, 6]: did not significantly displace

CC[C@H]1CCC[C@H](O[C@H]2CC[C@H](N(C)C)[C@@H](C)O2)[C@@H](C)C(=O)C2=C[C@@H]3[C@@H](C=C[C@@H]4C[C@@H](O[C@@H]5O[C@@H](C)[C@H](OC)[C@@H](OC)[C@H]5OC)C[C@@H]34)[C@@H]2CC(=O)O1 [Spinosyn A, spinosyn A]
displacement of [3H]DHSA binding [1, 6]: significant displacement | Spinosyn A Response ([4]; spinosyn A 10 μM for 60 seconds, oocytes clamped to −60 mV, peak current, 30D): − | Spinosyn A Response ([5]; spinosyn A 10 μM for 60 seconds, −60 mV, peak current, 34E): − | Spinosyn A Response (30D/ric-3; [7]): + | Spinosyn A Response (34E/ric-3; spinosyn A 10 μM for 60 seconds, −60 mV, peak current, 34E/ric-3): − | mortality [2]: all wild-type flies exhibited mortality | mortality [3]: no significant mortality | resistance of spinosyn A resistant flies compared to wild-type flies (based on LD50) [3]: at least 100 fold | Spinosyn A Response (34E/30D; [7]): ++ | Spinosyn A Response (34E/30D/ric-3; [7]): ++++ | % Displacement of Total Binding (Dα6-nicotinic receptor; 10 μM, [3H]MLA, intact Xenopus oocytes 3 days post-injection with Dmα6): 72%

Clc1ccc(C2CC3CCC2N3)cn1 (stereo not shown) [epibatidine]
displacement of [3H]DHSA binding [1, 6]: did not significantly displace

CN1CCCC1c1cccnc1 (stereo not shown) [Nicotine, nicotine]
displacement of [3H]DHSA binding [1, 6]: displacement | Nicotine Response [4]: − | Nicotine Response [5]: + | Nicotine Response (30D/ric-3; nicotine 1 mM for 30 seconds): + | Nicotine Response (34E/ric-3): + | Nicotine Response (34E/30D; nicotine 1 mM for 30 seconds): ++ | Nicotine Response (34E/30D/ric-3; nicotine 1 mM for 30 seconds): ++++ | % Displacement of Total Binding (Dα6-nicotinic receptor): 72%

C[C@@H]1O[C@H](C[N+](C)(C)C)C[C@H]1O [muscarine]
displacement of [3H]DHSA binding [1, 6]: not

CN1[C@@H](CC(=O)c2ccccc2)CCC[C@H]1C[C@H](O)c1ccccc1 [lobeline]
displacement of [3H]DHSA binding [1, 6]: did not significantly displace
